Laboratory results reported in the NIST ThermoML archive (doi:10.1016/j.jct.2018.11.011).
Several values for one entry are separate records, joined by “and”; a condition that tells them apart may be missing. Equal entries are not always repeated.

Experiment: molar heat capacity at constant pressure
Settings: 101.33 kPa

O=C([O][Sb]([c]1ccccc1)([c]1ccccc1)([c]1ccccc1)[c]1ccccc1)c1ccccc1 [tetraphenylantimony benzoate]
Settings	molar heat capacity at constant pressure
175 K, Crystal, Small (less than 1 g) adiabatic calorimetry	350 J/K/mol
179.52 K, Crystal, Small (less than 1 g) adiabatic calorimetry	354.2 J/K/mol
180 K, Crystal, Small (less than 1 g) adiabatic calorimetry	355.4 J/K/mol
182.77 K, Crystal, Small (less than 1 g) adiabatic calorimetry	359.3 J/K/mol
187 K, Crystal, Small (less than 1 g) adiabatic calorimetry	368 J/K/mol
190 K, Crystal, Small (less than 1 g) adiabatic calorimetry	372 J/K/mol
193.46 K, Crystal, Small (less than 1 g) adiabatic calorimetry	377.4 J/K/mol
196.73 K, Crystal, Small (less than 1 g) adiabatic calorimetry	382.6 J/K/mol
200 K, Crystal, Small (less than 1 g) adiabatic calorimetry	387 J/K/mol and 387.6 J/K/mol
203.22 K, Crystal, Small (less than 1 g) adiabatic calorimetry	393.1 J/K/mol
206.89 K, Crystal, Small (less than 1 g) adiabatic calorimetry	398.7 J/K/mol
210 K, Crystal, Small (less than 1 g) adiabatic calorimetry	402 J/K/mol
212.74 K, Crystal, Small (less than 1 g) adiabatic calorimetry	408.9 J/K/mol
216.41 K, Crystal, Small (less than 1 g) adiabatic calorimetry	416 J/K/mol
218 K, Crystal, Small (less than 1 g) adiabatic calorimetry	417 J/K/mol
220 K, Crystal, Small (less than 1 g) adiabatic calorimetry	420.9 J/K/mol
221.7 K, Crystal, Small (less than 1 g) adiabatic calorimetry	424.2 J/K/mol
226.59 K, Crystal, Small (less than 1 g) adiabatic calorimetry	431.9 J/K/mol
230.26 K, Crystal, Small (less than 1 g) adiabatic calorimetry	438 J/K/mol
233.93 K, Crystal, Small (less than 1 g) adiabatic calorimetry	444.7 J/K/mol
237.6 K, Crystal, Small (less than 1 g) adiabatic calorimetry	451.8 J/K/mol
240 K, Crystal, Small (less than 1 g) adiabatic calorimetry	455.1 J/K/mol
241.26 K, Crystal, Small (less than 1 g) adiabatic calorimetry	457.5 J/K/mol
244.92 K, Crystal, Small (less than 1 g) adiabatic calorimetry	464.4 J/K/mol
248.56 K, Crystal, Small (less than 1 g) adiabatic calorimetry	469.4 J/K/mol
252.2 K, Crystal, Small (less than 1 g) adiabatic calorimetry	476.9 J/K/mol
255.84 K, Crystal, Small (less than 1 g) adiabatic calorimetry	483.2 J/K/mol
259.46 K, Crystal, Small (less than 1 g) adiabatic calorimetry	489.4 J/K/mol
260 K, Crystal, Small (less than 1 g) adiabatic calorimetry	491.6 J/K/mol
260.21 K, Crystal, Small (less than 1 g) adiabatic calorimetry	492.1 J/K/mol
263.38 K, Crystal, Small (less than 1 g) adiabatic calorimetry	496.3 J/K/mol
266.99 K, Crystal, Small (less than 1 g) adiabatic calorimetry	503.4 J/K/mol
270.59 K, Crystal, Small (less than 1 g) adiabatic calorimetry	511.1 J/K/mol
273.15 K, Crystal, Small (less than 1 g) adiabatic calorimetry	514.4 J/K/mol
274.19 K, Crystal, Small (less than 1 g) adiabatic calorimetry	516.9 J/K/mol
277.77 K, Crystal, Small (less than 1 g) adiabatic calorimetry	523.1 J/K/mol
280 K, Crystal, Small (less than 1 g) adiabatic calorimetry	527.1 J/K/mol
281.34 K, Crystal, Small (less than 1 g) adiabatic calorimetry	529.8 J/K/mol
284.91 K, Crystal, Small (less than 1 g) adiabatic calorimetry	536.8 J/K/mol
288.45 K, Crystal, Small (less than 1 g) adiabatic calorimetry	544.3 J/K/mol
291.98 K, Crystal, Small (less than 1 g) adiabatic calorimetry	551.8 J/K/mol
295.51 K, Crystal, Small (less than 1 g) adiabatic calorimetry	558.6 J/K/mol
298.15 K, Crystal, Small (less than 1 g) adiabatic calorimetry	564.4 J/K/mol
299.02 K, Crystal, Small (less than 1 g) adiabatic calorimetry	565.4 J/K/mol
300 K, Crystal, Small (less than 1 g) adiabatic calorimetry	568.4 J/K/mol
302.51 K, Crystal, Small (less than 1 g) adiabatic calorimetry	572.4 J/K/mol
305.98 K, Crystal, Small (less than 1 g) adiabatic calorimetry	579.5 J/K/mol
309.1 K, Crystal, Small (less than 1 g) adiabatic calorimetry	585.3 J/K/mol
312.86 K, Crystal, Small (less than 1 g) adiabatic calorimetry	594.4 J/K/mol
316.25 K, Crystal, Small (less than 1 g) adiabatic calorimetry	601.1 J/K/mol
319.65 K, Crystal, Small (less than 1 g) adiabatic calorimetry	610.9 J/K/mol
320 K, Crystal, Small (less than 1 g) adiabatic calorimetry	611.4 J/K/mol
321.5 K, Crystal, DSC	615 J/K/mol
323.03 K, Crystal, Small (less than 1 g) adiabatic calorimetry	617.6 J/K/mol
324.5 K, Crystal, DSC	621 J/K/mol
326.38 K, Crystal, Small (less than 1 g) adiabatic calorimetry	625.6 J/K/mol
327.5 K, Crystal, DSC	627 J/K/mol
329.73 K, Crystal, Small (less than 1 g) adiabatic calorimetry	632 J/K/mol
330.5 K, Crystal, DSC	634 J/K/mol
333.07 K, Crystal, Small (less than 1 g) adiabatic calorimetry	638.8 J/K/mol
333.5 K, Crystal, DSC	639 J/K/mol
336.5 K, Crystal, DSC	645 J/K/mol
337.11 K, Crystal, Small (less than 1 g) adiabatic calorimetry	646.4 J/K/mol
339.5 K, Crystal, DSC	649 J/K/mol
340 K, Crystal, Small (less than 1 g) adiabatic calorimetry	650 J/K/mol
342.5 K, Crystal, DSC	656 J/K/mol
345.5 K, Crystal, DSC	660 J/K/mol
348.5 K, Crystal, DSC	666 J/K/mol
351.5 K, Crystal, DSC	671 J/K/mol
354.5 K, Crystal, DSC	678 J/K/mol
357.5 K, Crystal, DSC	683 J/K/mol
360 K, Crystal, Small (less than 1 g) adiabatic calorimetry	688 J/K/mol
360.5 K, Crystal, DSC	689 J/K/mol
368.5 K, Crystal, DSC	709 J/K/mol
377.2 K, Crystal, DSC	731 J/K/mol
380 K, Crystal, Small (less than 1 g) adiabatic calorimetry	736 J/K/mol
387.3 K, Crystal, DSC	755 J/K/mol
397.5 K, Crystal, DSC	780 J/K/mol
400 K, Crystal, Small (less than 1 g) adiabatic calorimetry	788 J/K/mol
402.5 K, Crystal, DSC	793 J/K/mol
405.5 K, Crystal, DSC	800 J/K/mol
408.5 K, Crystal, DSC	806 J/K/mol
411.5 K, Crystal, DSC	830 J/K/mol
420 K, Crystal, Small (less than 1 g) adiabatic calorimetry	800 J/K/mol
437.5 K, Crystal, Small (less than 1 g) adiabatic calorimetry	873 J/K/mol
437.5 K, Liquid, DSC	973 J/K/mol
440 K, Liquid, DSC	973 J/K/mol
445.5 K, Liquid, DSC	989 J/K/mol
447.5 K, Liquid, DSC	981 J/K/mol
450.5 K, Liquid, DSC	973 J/K/mol
453.5 K, Liquid, DSC	973 J/K/mol
456.5 K, Liquid, DSC	973 J/K/mol
459.5 K, Liquid, DSC	973 J/K/mol
460 K, Liquid, DSC	973 J/K/mol
462.5 K, Liquid, DSC	973 J/K/mol
465.5 K, Liquid, DSC	973 J/K/mol
468.5 K, Liquid, DSC	973 J/K/mol
471.5 K, Liquid, DSC	973 J/K/mol
474.5 K, Liquid, DSC	973 J/K/mol
477.5 K, Liquid, DSC	973 J/K/mol
480 K, Liquid, DSC	973 J/K/mol
480.5 K, Liquid, DSC	973 J/K/mol
